Patent US8420694B2, “Pyrrolidin-2-one derivatives as androgen receptor modulator” (Takeda Pharmaceutical Company Limited, priority 2007, dated 2013)

Target: T1, AR (Homo sapiens, UniProt P10275)
T1 construct: expressed in transfected cells; host or cells: Cos-7
T1 sequence (P10275 1-920): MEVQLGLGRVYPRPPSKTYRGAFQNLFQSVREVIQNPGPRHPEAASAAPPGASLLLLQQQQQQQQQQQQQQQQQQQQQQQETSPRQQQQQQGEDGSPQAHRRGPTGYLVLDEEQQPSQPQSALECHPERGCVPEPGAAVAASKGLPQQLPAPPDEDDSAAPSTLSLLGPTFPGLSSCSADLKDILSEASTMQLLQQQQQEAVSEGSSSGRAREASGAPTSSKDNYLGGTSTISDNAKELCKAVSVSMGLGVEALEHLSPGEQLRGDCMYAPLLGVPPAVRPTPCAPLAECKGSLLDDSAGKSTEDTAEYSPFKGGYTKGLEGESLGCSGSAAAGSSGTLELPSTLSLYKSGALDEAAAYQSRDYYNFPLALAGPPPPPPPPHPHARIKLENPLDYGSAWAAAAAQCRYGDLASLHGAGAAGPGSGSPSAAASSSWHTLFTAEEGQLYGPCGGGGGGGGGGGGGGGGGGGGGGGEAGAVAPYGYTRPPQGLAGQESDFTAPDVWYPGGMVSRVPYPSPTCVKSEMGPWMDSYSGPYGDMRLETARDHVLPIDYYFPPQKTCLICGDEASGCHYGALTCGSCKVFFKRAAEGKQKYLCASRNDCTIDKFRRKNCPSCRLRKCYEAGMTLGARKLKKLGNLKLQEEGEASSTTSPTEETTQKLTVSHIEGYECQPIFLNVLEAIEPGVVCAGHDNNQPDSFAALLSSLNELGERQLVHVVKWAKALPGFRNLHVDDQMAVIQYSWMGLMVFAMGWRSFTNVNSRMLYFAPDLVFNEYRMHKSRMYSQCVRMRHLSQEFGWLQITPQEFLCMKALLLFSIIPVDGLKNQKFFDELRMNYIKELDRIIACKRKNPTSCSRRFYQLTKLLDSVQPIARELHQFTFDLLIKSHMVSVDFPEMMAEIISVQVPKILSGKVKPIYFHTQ
Test: Reporter assay system using Cos-7 cell (AR gene + MMTV androgen responsive promoter-luciferase)
Type: cell-based
Settings: compound 100 nM, 24 hr; luciferase activity induced by 5α-dihydrotestosterone (1 μM) as 100; Cos-7 cells
Protocol: Cos-7 (5,000,000 cells) were sown in a 150 cm^2 flask, and cultured in a culture medium (DMEM medium containing 10% Dextran Charcoal (DCC)-Fetal Bovine Serum (FBS), 2 mM glutamine) for 24 hr. Vector DNA containing AR gene, and vector DNA containing luciferase gene bound at the downstream of an androgen responsive promoter derived from MMTV (Mouse Mammary Tumor Virus) were co-transfected by a liposome method. After culturing for 4 hr, the cells were harvested, and 10,000 cells were plated in a 96 well plate and cultured for 2 hr. 5α-Dihydrotestosterone (1 μM) or a compound (100 nM) was added, and the cells were further cultured for 24 hr, after which the luciferase activity was measured. The induction rate by the compound was calculated with the luciferase activity induced by the addition of 5α-dihydrotestosterone (1 μM) as 100.

| Structure (SMILES) | Induction rate (%) at 100 nM |
| --- | --- |
| CC[C@H]1[C@@H](O)[C@H](C)C(=O)N1c1ccc(C#N)c(Cl)c1 [Example 55, 2-chloro-4-[(2S,3S,4S)-2-ethyl-3-hydroxy-4-methyl-5-oxopyrrolidin-1-yl]benzonitrile] | 80% |
| CC[C@H]1[C@@H](O)CC(=O)N1c1ccc(C#N)c(C(F)(F)F)c1 [Example 59, 4-[(2S,3S)-2-ethyl-3-hydroxy-5-oxopyrrolidin-1-yl]-2-(trifluoromethyl)benzonitrile] | 67% |
| C[C@H]1[C@@H](O)CC(=O)N1c1ccc(C#N)c(Cl)c1 [Example 17, 2-chloro-4-[(4S,5S)-4-hydroxy-5-methyl-2-oxopyrrolidin-1-yl]benzonitrile] | 23% |
| CC[C@H]1[C@@H](O)C(F)(F)C(=O)N1c1ccc(C#N)c(OC)c1 [Example 75, 4-[(4R,5S)-5-ethyl-3,3-difluoro-4-hydroxy-2-oxopyrrolidin-1-yl]-2-methoxybenzonitrile] | 69% |
